Target: T1, human P2X4 (Homo sapiens, UniProt Q99571)
T1 sequence (Q99571 1-388): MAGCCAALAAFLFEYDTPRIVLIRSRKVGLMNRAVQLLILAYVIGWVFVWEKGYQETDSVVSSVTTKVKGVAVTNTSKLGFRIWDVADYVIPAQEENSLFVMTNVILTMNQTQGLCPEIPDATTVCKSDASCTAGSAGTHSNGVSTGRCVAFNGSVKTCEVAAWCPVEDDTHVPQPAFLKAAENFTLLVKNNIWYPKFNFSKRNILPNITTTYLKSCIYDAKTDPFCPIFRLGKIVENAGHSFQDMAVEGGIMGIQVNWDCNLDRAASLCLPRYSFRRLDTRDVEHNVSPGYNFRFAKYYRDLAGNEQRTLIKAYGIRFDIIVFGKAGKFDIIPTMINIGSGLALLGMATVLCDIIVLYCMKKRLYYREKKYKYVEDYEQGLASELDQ
Experiment: Human P2X4 HEK Cell FLIPR Assay
Format: cell-based
Conditions: agonist Bz-ATP at EC80; for Emax: HEK293, HEK293 cells, percentage of maximal inhibition, read-out: Human P2X4 HEK Cells (FLIPR Assay) avg Efficacy [%]; for IC50: HEK293 cells, individual values listed where some fall outside detection range
Method in brief: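 Calcium flux read by FLIPR for 120 sec after Bz-ATP challenge at EC80 (established each assay day), following 30 min room-temperature compound preincubation in dye-loaded stable human P2X4 HEK293 cells. Peak RFU over basal normalized to agonist control; IC50, maximal inhibition and Hill coefficient from triplicate means.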

| Emax | IC50 | Structure (SMILES) |
| --- | --- | --- |
| 81% | 25 nM | NS(=O)(=O)c1cc(NC(=O)Cc2ccccc2Cl)ccc1-n1cc2ncccc2n1 [Example 255, 2-(2-Chlorophenyl)-N-[4-(2H-pyrazolo[4,3-b]pyridin-2-yl)-3-sulfamoylphenyl]-acetamide] |
| 83% | 130 nM | COCCc1cnn(-c2ccc(NC(=O)Cc3ccccc3Cl)cc2S(N)(=O)=O)c1 [Example 256, 2-(2-Chlorophenyl)-N-{4-[4-(2-methoxyethyl)-1H-pyrazol-1-yl]-3-sulfamoylphenyl}-acetamide] |
| 81% | 51 nM | NS(=O)(=O)c1cc(NC(=O)Cc2ccccc2Cl)ccc1-n1ccc(F)n1 [Example 257, 2-(2-Chlorophenyl)-N-[4-(3-fluoro-1H-pyrazol-1-yl)-3-sulfamoylphenyl]acetamide] |
| 97% | 30 nM | NS(=O)(=O)c1cc(NC(=O)Cc2ccccc2Cl)ccc1-n1cc(NCC(F)F)cn1 [Example 258, 2-(2-Chlorophenyl)-N-(4-{4-[(2,2-difluoroethyl)amino]-1H-pyrazol-1-yl}-3-sulfamoyl-phenyl)acetamide] |
| 91% | 50 nM | NS(=O)(=O)c1cc(NC(=O)Cc2ccccc2Cl)ccc1-n1cc(CC(F)F)cn1 [Example 259, 2-(2-Chlorophenyl)-N-{4-[4-(2,2-difluoroethyl)-1H-pyrazol-1-yl]-3-sulfamoylphenyl}-acetamide] |
| 100% | 398 nM | NS(=O)(=O)c1cc(NC(=O)Cc2ccccc2Cl)ccc1-n1cc(CNCC(F)F)cn1 [Example 260, 2-(2-Chlorophenyl)-N-[4-(4-{[(2,2-difluoroethyl)amino]methyl}-1H-pyrazol-1-yl)-3-sulfamoylphenyl]acetamide] |
| 81% | 111 nM | NS(=O)(=O)c1cc(NC(=O)Cc2ccccc2Cl)ccc1-c1noc(C(F)(F)F)n1 [Example 261, 2-(2-Chlorophenyl)-N-{3-sulfamoyl-4-[5-(trifluoromethyl)-1,2,4-oxadiazol-3-yl]phenyl}acetamide] |
| 92% | 235 nM | Cc1cnn(-c2ccc(NC(=O)Cc3ccccc3F)cc2S(N)(=O)=O)c1 [Example 262, 2-(2-Fluorophenyl)-N-[4-(4-methyl-1H-pyrazol-1-yl)-3-sulfamoylphenyl]acetamide] |
| 96% | 337 nM | NS(=O)(=O)c1cc(NC(=O)Cc2ccccc2F)ccc1-n1cnc(C2CC2)c1 [Example 263, N-[4-(4-Cyclopropyl-1H-imidazol-1-yl)-3-sulfamoylphenyl]-2-(2-fluorophenyl)-acetamide] |
| 76% | 4070 nM | NS(=O)(=O)c1cc(NC(=O)Cc2ccccc2F)ccc1-n1ccc(C2CC2)n1 [Example 264, N-[4-(3-Cyclopropyl-1H-pyrazol-1-yl)-3-sulfamoylphenyl]-2-(2-fluorophenyl)-acetamide] |
| 84% | 352 nM | COCCc1cnn(-c2ccc(NC(=O)Cc3ccccc3F)cc2S(N)(=O)=O)c1 [Example 265, 2-(2-Fluorophenyl)-N-{4-[4-(2-methoxyethyl)-1H-pyrazol-1-yl]-3-sulfamoyl-phenyl}acetamide] |
| 94% | 7 nM | NS(=O)(=O)c1cc(NC(=O)Cc2ccccc2Cl)ccc1-c1ccccc1 [Example 266, 2-(2-Chlorophenyl)-N-(2-sulfamoylbiphenyl-4-yl)acetamide] |
| 98% | 2 nM | NS(=O)(=O)c1cc(NC(=O)Cc2ccccc2Cl)ccc1-c1cnn(CC2CC2)c1 [Example 267, 2-(2-Chlorophenyl)-N-{4-[1-(cyclopropylmethyl)-1H-pyrazol-4-yl]-3-sulfamoyl-phenyl}acetamide] |
| 103% | 5 nM | COCCn1cc(-c2ccc(NC(=O)Cc3ccccc3Cl)cc2S(N)(=O)=O)cn1 [Example 268, 2-(2-Chlorophenyl)-N-{4-[1-(2-methoxyethyl)-1H-pyrazol-4-yl]-3-sulfamoylphenyl}-acetamide] |
| 81% | 1040 nM | NS(=O)(=O)c1cc(NC(=O)Cc2ccccc2Cl)ccc1-c1cnn(C2CCNCC2)c1 [Example 269, 2-(2-Chlorophenyl)-N-{4-[1-(piperidin-4-yl)-1H-pyrazol-4-yl]-3-sulfamoylphenyl}-acetamide] |
| 51% | > 25000 nM | NS(=O)(=O)c1cc(NC(=O)Cc2ccccc2F)ccc1-c1cnn(C2CCNCC2)c1 [Example 270, 2-(2-Fluorophenyl)-N-{4-[1-(piperidin-4-yl)-1H-pyrazol-4-yl]-3-sulfamoylphenyl}acetamide] |

| Emax | IC50 | Structure (SMILES) |
| --- | --- | --- |
| 82% | 1150 nM | NS(=O)(=O)c1cc(NC(=O)Cc2ccccc2Cl)ccc1-c1cnn(C2CNC2)c1 [Example 271, N-{4-[1-(Azetidin-3-yl)-1H-pyrazol-4-yl]-3-sulfamoylphenyl}-2-(2-chlorophenyl)-acetamide] |
| 90% | 507 nM | NS(=O)(=O)c1cc(NC(=O)Cc2cccc(Cl)c2)ccc1-c1ccccc1 [Example 272, 2-(3-Chlorophenyl)-N-(2-sulfamoylbiphenyl-4-yl)acetamide] |
| 60% | 35 nM | Cc1ccn(-c2ccc(NC(=O)Cc3ccccc3Cl)cc2S(N)(=O)=O)n1 [Example 273, 2-(2-Chlorophenyl)-N-[4-(3-methyl-1H-pyrazol-1-yl)-3-sulfamoylphenyl]acetamide] |
| 97% | 19 nM | NS(=O)(=O)c1cc(NC(=O)Cc2ccccc2Cl)ccc1-c1ccc(Cl)nc1 [Example 274, 2-(2-Chlorophenyl)-N-[4-(6-chloropyridin-3-yl)-3-sulfamoylphenyl]acetamide] |
| 82% | 507 nM | Cc1noc(C)c1-c1ccc(NC(=O)Cc2ccccc2Cl)cc1S(N)(=O)=O [Example 275, 2-(2-Chlorophenyl)-N-[4-(3,5-dimethyl-1,2-oxazol-4-yl)-3-sulfamoylphenyl]acetamide] |
| 96% | 195 nM | CC1(Cn2cc(-c3ccc(NC(=O)Cc4ccccc4Cl)cc3S(N)(=O)=O)cn2)COC1 [Example 276, 2-(2-Chlorophenyl)-N-(4-{1-[(3-methyloxetan-3-yl)methyl]-1H-pyrazol-4-yl}-3-sulfamoylphenyl)acetamide] |
| 90% | 186 nM | COCCn1cc(-c2ccc(NC(=O)Cc3ccc(F)cc3Cl)cc2S(N)(=O)=O)cn1 [Example 277, 2-(2-Chloro-4-fluorophenyl)-N-{4-[1-(2-methoxyethyl)-1H-pyrazol-4-yl]-3-sulfamoyl-phenyl}acetamide] |
| 102% | 93 nM | NS(=O)(=O)c1cc(NC(=O)Cc2ccc(F)cc2Cl)ccc1-c1cnn(C2CC2)c1 [Example 278, 2-(2-Chloro-4-fluorophenyl)-N-[4-(1-cyclopropyl-1H-pyrazol-4-yl)-3-sulfamoyl-phenyl]acetamide] |
| 96% | 61 nM | NS(=O)(=O)c1cc(NC(=O)Cc2ccccc2Cl)ccc1-c1cnn(CCOC(F)(F)F)c1 [Example 279, 2-(2-Chlorophenyl)-N-(3-sulfamoyl-4-{1-[2-(trifluoromethoxy)ethyl]-1H-pyrazol-4-yl}phenyl)acetamide] |
| 101% | 60 nM | NS(=O)(=O)c1cc(NC(=O)Cc2ccccc2Cl)ccc1-c1cnn(C2CCC2)c1 [Example 280, 2-(2-Chlorophenyl)-N-[4-(1-cyclobutyl-1H-pyrazol-4-yl)-3-sulfamoylphenyl]acetamide] |
| 76% | 481 nM | NS(=O)(=O)c1cc(NC(=O)Cc2ccccc2Cl)ccc1-c1cnn(CCN2CCCC2)c1 [Example 281, 2-(2-Chlorophenyl)-N-(4-{1-[2-(pyrrolidin-1-yl)ethyl]-1H-pyrazol-4-yl}-3-sulfamoyl-phenyl)acetamide] |
| 80% | 56 nM | N#Cc1cncc(-c2ccc(NC(=O)Cc3ccccc3Cl)cc2S(N)(=O)=O)c1 [Example 282, 2-(2-Chlorophenyl)-N-[4-(5-cyanopyridin-3-yl)-3-sulfamoylphenyl]acetamide] |
| 94% | 60 nM | NS(=O)(=O)c1cc(NC(=O)Cc2ccccc2Cl)ccc1-c1cnn(CC2CCO2)c1 (stereo not shown) [Example 283, 2-(2-Chlorophenyl)-N-(4-{1-[oxetan-2-ylmethyl]-1H-pyrazol-4-yl}-3-sulfamoylphenyl)-acetamide] |
| 94% | 54 nM | NS(=O)(=O)c1cc(NC(=O)Cc2ccccc2Cl)ccc1-c1cnc(OCC(F)(F)F)nc1 [Example 284, 2-(2-Chlorophenyl)-N-{3-sulfamoyl-4-[2-(2,2,2-trifluoroethoxy)pyrimidin-5-yl]phenyl}-acetamide] |
| 97% | 246 nM | COc1ncc(-c2ccc(NC(=O)Cc3ccccc3Cl)cc2S(N)(=O)=O)cn1 [Example 285, 2-(2-Chlorophenyl)-N-[4-(2-methoxypyrimidin-5-yl)-3-sulfamoylphenyl]acetamide] |
| 87% | 6 nM | CC(C)OCCn1cc(-c2ccc(NC(=O)Cc3ccccc3Cl)cc2S(N)(=O)=O)cn1 [Example 286, 2-(2-Chlorophenyl)-N-(4-{1-[2-(propan-2-yloxy)ethyl]-1H-pyrazol-4-yl}-3-sulfamoylphenyl)acetamide] |

— patent US11524938B2, “Aromatic sulfonamide derivatives” (Bayer Pharma Aktiengesellschaft, priority 2016, dated 2022)
